Laboratory results reported in US20250082702A1, “ANTICANCER COMPOSITION COMPRISING RECOMBINANT ADENOVIRUS EXPRESSING DEGRADATION FACTOR FOR EXTRACELLULAR MATRIX” (priority 2016, published 2025).

Assays:
[1] = test system: PANC-1; experiment: Pancreatic cancer subcutaneous animal model; format: in vivo, mice; settings: PANC-1 subcutaneous; RdB/IL-12/RLX intratumoral, gemcitabine 10 mg/kg
Description: (§1) It was intended to verify the anti-tumor effect by the co-administration of RdB/IL-12/RLX and gemcitabine in a pancreatic cancer subcutaneous animal model. The formation of tumors was induced by injecting PANC-1, MIA PaCa-2, or BxPC-3 cells subcutaneously into mice, a change in size of tumors was observed while RdB/IL-12/RLX was administered alone or RdB/IL-12/RLX was administered (administered intratumorally) in combination with gemcitabine (10 mg/kg). Meanwhile, a PBS only administration group was used as a negative control.

[2] = test system: BxPC-3; experiment: Pancreatic cancer subcutaneous animal model; format: in vivo, mice; settings: BxPC-3 subcutaneous; RdB/IL-12/RLX intratumoral, gemcitabine 10 mg/kg
Description: as §1

[3] = test system: MIA PaCa-2; experiment: Pancreatic cancer subcutaneous animal model; format: in vivo, mice; settings: MIA PaCa-2 subcutaneous; RdB/IL-12/RLX intratumoral, gemcitabine 10 mg/kg
Description: as §1

[4] = test system: PANC-1; experiment: MTT assay, RdB/IL-12/DCN with gemcitabine; format: cell-based, human; settings: gemcitabine alone at 100 μg/ml
Description: (§2) For this purpose, human pancreatic cancer cell lines PANC-1, MIA PaCa-2, and AsPC-1 were infected with RdB/IL-12/DCN of the present invention at a MOI of 0.5 or 2, and treated together with gemcitabine (0.05, 0.2, 1, 2, 5, 20, or 100 μg/ml), and then the degree of apoptosis was observed through MTT assay.

[5] = test system: AsPC-1; experiment: MTT assay, RdB/IL-12/DCN with gemcitabine; format: cell-based, human; settings: gemcitabine alone at 100 μg/ml
Description: as §2

[6] = test system: MIA PaCa-2; experiment: MTT assay, RdB/IL-12/DCN with gemcitabine; format: cell-based, human; settings: gemcitabine alone at 100 μg/ml
Description: as §2

[7] = test system: MIA PaCa-2-Fluc; experiment: Histological evaluation of orthotopic pancreatic tumors (H&E, PCNA, TUNEL, E1A); format: in vivo, mouse; settings: orthotopic MIA PaCa-2-Fluc tumor tissue
Description: It was intended to histologically evaluate the anti-tumor effect of the aforementioned experiments. First, the formation of tumors was induced by injecting a human pancreatic cancer cell line MIA PaCa-2-Fluc into the mouse pancreas, and then PBS, gemcitabine, RdB/IL-12/DCN, or gemcitabine+RdB/IL-12/DCN was each administered thereto. Thereafter, hematoxylin-eosin (H & E) staining and PCNA immunohistological staining were performed after collecting the tumor tissues. Further, a TUNEL assay was performed in order to confirm the degree of apoptosis of tumor cells, and immunohistological staining using an antibody against an E1A protein of the adenovirus was performed in order to confirm whether the anti-tumor effect was caused by the replication of the adenovirus present in tumor tissues.

[8] = test system: MIA PaCa-2; experiment: Pancreatic cancer xenograft animal model, extracellular matrix and apoptosis; format: in vivo, mice; settings: RdB/IL-12/RLX 2×10^6 pfu, gemcitabine 1.5 mg/kg
Description: In order to construct a pancreatic cancer xenograft animal model, 5×10^5 of MIA PaCa-2 were injected subcutaneously into mice, and then when the size of tumors reached 50 to 100 mm^3, a change in extracellular matrix and an apoptosis effect were observed while 2×10^6 pfu of RdB/IL-12/RLX were administered alone or administered in combination with 1.5 mg/kg of gemcitabine. During the co-administration, RdB/IL-12/RLX was intratumorally administered three times in total at an interval of 2 days, and gemcitabine was intraperitoneally administered once. Thereafter, immunohistological staining and hematoxylin-eosin (H & E) staining were performed, and in order to confirm the degree of apoptosis, a TUNEL assay and cleaved caspase 3 immunostaining were performed. Meanwhile, a PBS only administration group was used as a negative control.

[9] = test system: MIA PaCa-2-Fluc; experiment: Orthotopic pancreatic cancer animal model, change in size of tumor (IVIS); format: in vivo, mouse; settings: IVIS imaging; combination: week 1 and 2; RdB/IL-12/DCN 2×10^10 VP i.p. three times, gemcitabine 100 mg/kg twice weekly for 3 weeks
Description: In order to construct an orthotopic pancreatic cancer animal model, a human pancreatic cancer cell line MIA PaCa-2-Fluc was selected and used in the experiment. Tumor cells were injected into the mouse pancreas, and two weeks later, the production of tumors was confirmed through an IVIS imaging machine. Thereafter, RdB/IL-12/DCN was intraperitoneally administered three times at 2×10^10 VP/500 μL every two days, and gemcitabine was administered twice weekly at 100 mg/kg for a total of 3 weeks. Meanwhile, a PBS only administration group was used as a negative control. Before RdB/IL-12/DCN was administered, the size and photon values of tumors were confirmed using the IVIS imaging machine, and at week 1, 2, and 3 after the administration, the changes in size of tumors were quantitatively compared.

[10] = test system: B16-F10; experiment: Animal model with induced resistance to anticancer agent (taxol), RdB/IL-12/DCN; format: in vivo, C57BL/6 mice; settings: day 16 (15 days after first taxol administration); taxol 10 mg/kg i.p., RdB/IL-12/DCN 5×10^5 VP, αPD-1 200 μg
Description: Under the conditions where the anti-tumor effect caused by an anticancer agent is insignificant due to the resistance to the anticancer agent, and the like, it was intended to verify an in vivo anti-tumor effect by the co-administration of RdB/IL-12/DCN and the immune checkpoint inhibitor (an anti PD-1 antibody; αPD-1). After a B16-F10 mouse melanoma cell line was injected (5×10^5 cells) subcutaneously into the flank of C57BL/6 mice, taxol (day 1, 2, and 3; 10 mg/kg) was injected intraperitoneally into the formed tumor (day 1, about 50 mm^3), and after RdB/IL-12/DCN was administered alone (day 3, 5, 7, and 9; 5×10^5 VP), αPD-1 was administered alone (day 4, 7, 8, and 10; 200 μg), or RdB/IL-12/DCN and αPD-1 were co-administered (under the same conditions, respectively), the growth of tumors was observed. Meanwhile, a PBS only administration group was used as a negative control.

| Structure (SMILES) | change in size of tumors [1] | change in size of tumors [2] | change in size of tumors [3] | ability to kill the pancreatic cancer cell lines (MTT assay) [4] | ability to kill the pancreatic cancer cell lines (MTT assay) [5] | ability to kill the pancreatic cancer cell lines (MTT assay) [6] | necrosis of cells in tumors (H & E staining) [7] | necrosis or apoptosis of cells in tumors (H & E, TUNEL, cleaved caspase 3) [8] | change in size of tumors [9] | size of tumors [10] |
| --- | --- | --- | --- | --- | --- | --- | --- | --- | --- | --- |
| Nc1ccn([C@@H]2O[C@H](CO)[C@@H](O)C2(F)F)c(=O)n1 [gemcitabine] | sharp increase in size of tumors | sharp increase in size of tumors | sharp increase in size of tumors | at most 30% | at most 30% | at most 30% | hardly observed | almost hardly proceeded or was insignificant | sharp increases in size of tumors | – |
| CC(=O)O[C@H]1C(=O)[C@@]2(C)[C@H]([C@H](OC(=O)c3ccccc3)[C@]3(O)C[C@H](OC(=O)[C@H](O)[C@@H](NC(=O)c4ccccc4)c4ccccc4)C(C)=C1C3(C)C)[C@]1(OC(C)=O)CO[C@@H]1C[C@@H]2O [taxol] | – | – | – | – | – | – | – | – | – | 5394.5±288.2 mm^3 |
